Source: patent publication US12616751B2, “Photosensitizing antibody-fluorophore conjugates” (The USA, as represented by the Secretary, Department of …, priority 2010, dated 2026)

Assays:
[1] = test system: MDA-MB-468 tumors; experiment: In vivo delivery of Pan-IR800 after Pan-IR700 PIT; set-up: species or system mice; settings: 50 J/cm2 to right side tumor; agent 1 h after PIT
Description: In vivo fluorescence imaging. Five days after injection of two million A431 or 3T3-HER2 cells in right and left dorsums, and seven days after MDA-MB-468 cells injection in mammary pads, tumor volumes of approximately 75 mm^3 were selected. Signals of IR700 and IR800 was detected with a fluorescence camera (Pearl Imager, LI-COR Biosciences) using the 700 and 800 nm fluorescence channel Qdot800 was detected with Maestro in vivo Imaging System (CRi) using a band-pass filter, which ranges between 575 to 605 nm (excitation) and a long-pass NIR filter over 800 nm (emission). Fluorescence images of daunorubicin were also obtained with Maestro using a band-pass filter from 503 to 555 nm (excitation) and a long-pass green filter over 580 nm (emission). The tunable emission filter was automatically stepped in 10 nm increments from 650 to 950 nm and from 500 to 800 nm for the NIR and green filter sets at constant exposure. The spectral fluorescence images consist of autofluorescence spectra and the spectra from Qdot800 and daunorubicin, which were then unmixed, based on their spectral patterns using commercial software (Maestro software; CRi). Mice were sacrificed with carbon dioxide immediately after in vivo imaging. The tumors were excised, and frozen or paraffin-embedded for histological study and fluorescence microscopy study after ex vivo imaging. […]

[2] = test system: A431 tumors; experiment: In vivo nanodrug-delivery after PIT (super EPR); set-up: species or system mice
Procedure: In vivo nanodrug-delivery after photoimmunotherapy. Six-week-old to 8-week-old female homozygote athymic nude mice were purchased from Charles River (National Cancer Institute Frederick). During treatment, mice were anesthetized with isoflurane. Two million A431 cells were injected subcutaneously in the right and left dorsums of each mouse. Five days after cell injection, 100 μg of Pan-IR700 was administered intravenously, and 1 day later, either side of tumor was irradiated with NIR light from a red-light-emitting diode at wavelengths of 670-690 nm and a power density of 10-100 J cm^−2, as measured with an optical power meter (PM 100 (Thorlabs)). One hour after PIT, Pan-IR800 (100 μg), Qtracker 800 Non-Targeted Quantum dots (32.5 pmol), or DaunoXome (30 mg kg^−1) were injected intravenously, and the in vivo fluorescence images were obtained with a Pearl Imager (LI-COR Biosciences) and a Maestro Imager (CRi). For MR imaging, SPIO (Feridex) was administered intravenously 1 h post-PIT and MR images were obtained. The tumors were excised, and frozen or paraffin-embedded for histological study and fluorescence microscopy study after ex vivo imaging.
In vivo fluorescence imaging. Five days after injection of two million A431 or 3T3-HER2 cells in right and left dorsums, and seven days after MDA-MB-468 cells injection in mammary pads, tumor volumes of approximately 75 mm^3 were selected. Signals of IR700 and IR800 was detected with a fluorescence camera (Pearl Imager, LI-COR Biosciences) using the 700 and 800 nm fluorescence channel Qdot800 was detected with Maestro in vivo Imaging System (CRi) using a band-pass filter, which ranges between 575 to 605 nm (excitation) and a long-pass NIR filter over 800 nm (emission). Fluorescence images of daunorubicin were also obtained with Maestro using a band-pass filter from 503 to 555 nm (excitation) and a long-pass green filter over 580 nm (emission). The tunable emission filter was automatically stepped in 10 nm increments from 650 to 950 nm and from 500 to 800 nm for the NIR and green filter sets at constant exposure. The spectral fluorescence images consist of autofluorescence spectra and the spectra from Qdot800 and daunorubicin, which were then unmixed, based on their spectral patterns using commercial software (Maestro software; CRi). Mice were sacrificed with carbon dioxide immediately after in vivo imaging. The tumors were excised, and frozen or paraffin-embedded for histological study and fluorescence microscopy study after ex vivo imaging.
Fluorescence microscopy. Ten-μm-thick frozen or paraffin sections were prepared and fluorescence in tumor sections was detected using an Olympus BX81 microscope (Olympus America, Inc., Melville, N.Y.) equipped with the following filters: excitation wavelength 590 to 650 nm, and 480 to 550 nm, emission wavelength 662.5 to 747.5 nm, 765 to 855 nm, and 590 nm long pass for IR700, Qdot800, and daunorubicin, respectively. Transmitted light differential interference contrast images were also acquired. H&E staining and Prussian Blue staining were performed according to standard protocol.
Optimal timing of second shot. To determine the optimal timing of second shot, Pan-IR800 (100 μg) was administered intravenously into A431 bearing mice at 1, 6, and 24 h after PIT treatment, and the dynamic imaging for 1 h was carried out with Pearl Imager according to the protocol described above.

[3] = IR700 at absorption maximum 689 nm; Photofrin 630 nm; Foscan 652 nm; NPe6 654 nm; cited from earlier work
[4] = test system: 3T3/HER2+ cells; experiment: Photoimmunotherapy (PIT) phototoxicity, LIVE/DEAD assay; assay type: cell-based; settings: 200 nM, equivalent IR700 concentration of conjugate
Procedure: Cells were grown in RPMI 1640 supplemented with 10% fetal bovine serum and 1% penicillin/streptomycin in tissue culture flasks in a humidified incubator at 37° C. in an atmosphere of 95% air and 5% carbon dioxide.
Culture medium was replaced with phenol red-free medium after washing with phosphate buffered saline (PBS).

[5] = Extinction coefficient of photosensitizers; assay type: physicochemical
Description: Currently commercially available from LI-COR (Lincoln, Nebr.). IR700 has several favorable chemical properties. Amino-reactive IR700 is a relatively hydrophilic dye and can be covalently conjugated with an antibody using the NHS ester of IR700. IR700 also has more than 5-fold higher extinction coefficient (2.1×10^5 M^−1cm^−1 at the absorption maximum of 689 nm), than conventional photosensitizers such as the hematoporphyrin derivative Photofrin® (1.2×10^3 M^−1cm^−1 at 630 nm), meta-tetrahydroxyphenylchlorin; Foscan® (2.2×10^4 M^−1cm^−1 at 652 nm), and mono-L-aspartylchlorin e6; NPe6/Laserphyrin® (4.0×10^4 M^−1cm^−1 at 654 nm).

[6] = Excretion of free and catabolized IR700; settings: in vivo

Compound: Pan-IR800: panitumumab conjugated to IRDye 800CW
- tumor shown in dynamic images [1]: only the right sided tumor was clearly shown up within 10 min
- change of perfusion by PIT with time after treatment ([2]; Pan-IR800 given 1, 6, and 24 h after PIT): completely stopped within 24 h
- uptake/signal in control tumors without NIR light ([2]; agent i.v. 1 h after PIT of contralateral tumor): no change on signal intensities
- accumulation in PIT-treated tumors ([2]; agent i.v. 1 h after Pan-IR700 PIT): facilitated the permeability
- signal intensities in PIT-treated tumors versus light dose ([2]; mouse, in vivo): increased with time in a light dose-dependent manner
- tumor uptake when given 24 h after PIT ([2]; mouse, in vivo): cannot be taken up by the tumor

Compound: Photofrin®
- extinction coefficient [3]: 1200 M⁻¹ cm⁻¹

Compound: IRDye® 700DX [IR700]
- phototoxicity of dye alone [4]: did not incorporate into the cells or induce phototoxcity in cells
- extinction coefficient higher than conventional photosensitizers [5]: more than 5 fold
- extinction coefficient [3]: 210000 M⁻¹ cm⁻¹
- organ accumulation [6]: without accumulation in any specific organ
- time to excretion into urine [6]: ≤ 1 h

Compound: C=Cc1c(C)c2cc3nc(c(CC(=O)N[C@@H](CC(=O)[O-])C(=O)[O-])c4[nH]c(cc5nc(cc1[nH]2)C(C)=C5CC)c(C)c4C(=O)[O-])[C@@H](CCC(=O)[O-])[C@@H]3C.[Na+].[Na+].[Na+].[Na+] [NPe6/Laserphyrin®, mono-L-aspartylchlorin e6]
- extinction coefficient [3]: 40000 M⁻¹ cm⁻¹

Compound: Oc1cccc(-c2c3nc(c(-c4cccc(O)c4)c4ccc([nH]4)c(-c4cccc(O)c4)c4nc(c(-c5cccc(O)c5)c5ccc2[nH]5)CC4)C=C3)c1 [Foscan®, meta-tetrahydroxyphenylchlorin]
- extinction coefficient [3]: 22000 M⁻¹ cm⁻¹
